In ChEMBL document CHEMBL5528067, “From Synergy to Monotherapy: Discovery of Novel 2,4,6-Trisubstituted Triazine Hydrazone Derivatives with Potent Antifungal Potency In Vitro and In Vivo” (J Med Chem, 2024):
Values after ≈ are worked out from the molar mass of the structure shown. Active and inactive are the calls of the source. The rule behind the calls is not given here.

Experiments:
[1] = MRT (0 to t) in Sprague-Dawley rat at 2 mg/kg, iv measured upto 24 hrs by LC-MS/MS analysis; assay type: ADME, organism-based; details: in vivo
[2] = Clearance in Sprague-Dawley rat at 2 mg/kg, iv measured upto 24 hrs by LC-MS/MS analysis; assay type: ADME, organism-based; details: in vivo
Nakaseomyces glabratus = experiment: Antifungal activity against Candida glabrata 537 assessed as growth inhibition measured after 48 hrs incubation by CLSI based micro-dilution broth method; assay type: functional
Candida albicans [3] = experiment: Effect on sterol biosynthesis in Candida albicans SC5314 assessed as sterol component and content at 4 microg/ml measured after 8 hrs by GC-MS analysis; assay type: functional, organism-based; details: dose 4.0 µg/ml
Candida albicans [4] = experiment: Suppression of SAP2 gene expression in Candida albicans SC5314 assessed as fold increase at 8 microg/ml by real time RT-PCR analysis relative to control; assay type: functional; details: dose 8.0 µg/ml
Candida albicans [5] = experiment: Antibiofilm activity against Candida albicans SC5314 assessed as inhibition of biofilm formation at 4 microg/ml incubated for 24 hrs by XTT/menadione reduction assay relative to control; assay type: functional; parameters: scale not given: the % may be the effect or the level left; details: dose 4 µg/ml
Candida albicans [6] = experiment: Induction of cell wall component change in Candida albicans SC5314 assessed as irregular and shrunken cell membrane chitin structure at 4 microg/ml measured after 12 hrs by transmission electron microscopy; assay type: functional, organism-based; details: dose 4.0 µg/ml
[7] = Cytotoxicity against human HUVEC cells assessed as cell viability measured after 24 hrs by CCK-8 assay; assay type: toxicity, cell-based
Candida albicans [8] = experiment: Suppression of EFG1 gene expression in Candida albicans SC5314 assessed as fold increase at 8 microg/ml by real time RT-PCR analysis relative to control; assay type: functional; details: dose 8.0 µg/ml
Candida albicans [9] = experiment: Antifungal activity against FCZ-resistant Candida albicans SC5314 assessed as growth inhibition measured after 48 hrs incubation by CLSI based micro-dilution broth method; assay type: functional
Candida tropicalis = experiment: Antifungal activity against Candida tropicalis 8915 assessed as growth inhibition measured after 48 hrs incubation by CLSI based micro-dilution broth method; assay type: functional
Candida albicans [10] = experiment: Antibiofilm activity against Candida albicans SC5314 assessed as inhibition of biofilm formation at 64 microg/ml incubated for 24 hrs by XTT/menadione reduction assay relative to control; assay type: functional; parameters: scale not given: the % may be the effect or the level left; details: dose 64 µg/ml
[11] = Metabolic stability in mouse liver microsomes assessed as intrinsic clearance measured per mg of protein upto 60 mins by LC-MS/MS analysis; assay type: ADME, Microsome; details: read-out: CLH
Candida albicans [12] = experiment: Filamentation inhibitory effect in Candida albicans SC5314 assessed as inhibition of hyphal formation using hyphal-inducing RPMI 1640 medium by measuring shorter hyphal at 2 to 8 microg/ml measured after 8 hrs by inverted imaging microscopy; assay type: functional, organism-based; details: dose 2-8 µg/ml
Pichia kudriavzevii [13] = experiment: Antifungal activity against FCZ-resistant Candida krusei 4996 assessed as growth inhibition at 4 microg/ml measured at 24 hrs incubation by time growth assay; assay type: functional, organism-based; details: dose 4.0 µg/ml
Cryptococcus neoformans = experiment: Antifungal activity against FCZ-resistant Cryptococcus neoformans 32609 assessed as growth inhibition at 0.5 to 4 microg/ml measured at 24 hrs incubation by time growth assay; assay type: functional, organism-based; details: dose 0.5-4 µg/ml
Candida albicans [14] = experiment: Synergistic antifungal activity against FCZ-resistant Candida albicans strain 901 assessed as fractional inhibitory concentration index measured after 48 hrs in presence of FCZ by CLSI based micro-dilution broth method; assay type: functional
[15] = AUC (0 to infinity) in Sprague-Dawley rat at 2 mg/kg, iv measured upto 24 hrs by LC-MS/MS analysis; assay type: ADME, organism-based; details: in vivo
[16] = Half life in Sprague-Dawley rat at 2 mg/kg, iv measured upto 24 hrs by LC-MS/MS analysis; assay type: ADME, organism-based; details: in vivo
Candida albicans [17] = experiment: Effect on HWP1 gene expression in Candida albicans SC5314 at 4 to 8 microg/ml by real time RT-PCR analysis; assay type: functional; details: dose 4-8 µg/ml
Candida albicans [18] = experiment: Upregulation of EFG1 gene expression in Candida albicans SC5314 assessed as fold increase at 4 microg/ml by real time RT-PCR analysis relative to control; assay type: functional; details: dose 4.0 µg/ml
Candida albicans [19] = experiment: Antifungal activity against FCZ-resistant Candida albicans strain 901 assessed as growth inhibition measured after 48 hrs incubation by CLSI based micro-dilution broth method; assay type: functional
Candida albicans [20] = experiment: Antibiofilm activity against Candida albicans SC5314 assessed as inhibition of biofilm formation at 32 microg/ml incubated for 24 hrs by XTT/menadione reduction assay relative to control; assay type: functional; parameters: scale not given: the % may be the effect or the level left; details: dose 32 µg/ml
[21] = Hemolytic activity in rabbit Red blood cell assessed as hemolysis rate at 64 microg/ml incubated for 1 hr; assay type: toxicity, cell-based, Oryctolagus cuniculus, Erythrocyte; details: red blood cells, at 64 µg/mL, read-out: Activity
Candida albicans [22] = experiment: Antibiofilm activity against Candida albicans SC5314 assessed as inhibition of biofilm formation incubated for 24 hrs by XTT/menadione reduction assay; assay type: functional, organism-based; details: dose 1-64 µg/ml
[23] = Cytotoxicity against human HUVEC cells assessed as cell viability at 16 microg/ml measured after 24 hrs by CCK-8 assay relative to control; assay type: toxicity, cell-based; details: at 16 µg/mL, read-out: Activity
Candida albicans [24] = experiment: Antifungal activity against FCZ-resistant Candida albicans strains assessed as growth inhibition in presence of FCZ measured after 48 hrs incubation by CLSI based micro-dilution broth method; assay type: functional
Candida albicans [25] = experiment: Antifungal activity against FCZ-resistant Candida albicans 10231 assessed as growth inhibition measured after 48 hrs incubation by CLSI based micro-dilution broth method; assay type: functional
[26] = Volume of distribution at steady state in Sprague-Dawley rat at 2 mg/kg, iv measured upto 24 hrs by LC-MS/MS analysis; assay type: ADME, organism-based; details: in vivo, read-out: Vdss
Candida albicans [27] = experiment: Suppression of BCR1 gene expression in Candida albicans SC5314 assessed as fold increase at 8 microg/ml by real time RT-PCR analysis relative to control; assay type: functional; details: dose 8.0 µg/ml
Candida albicans [28] = experiment: Induction of cell wall component change in Candida albicans SC5314 assessed as change in chitin content by measuring […] fluorescence intensity at 4 microg/ml measured after 12 hrs by confocal laser-scanning microscopy; assay type: functional, organism-based; details: dose 4.0 µg/ml
Candida albicans [29] = experiment: Induction of cell wall component change in Candida albicans SC5314 assessed as thinner mannan layer at 4 microg/ml measured after 12 hrs by transmission electron microscopy; assay type: functional, organism-based; details: dose 4.0 µg/ml
Candida albicans [30] = experiment: Upregulation of SAP6 gene expression in Candida albicans SC5314 assessed as fold increase at 4 microg/ml by real time RT-PCR analysis relative to control; assay type: functional; details: dose 4.0 µg/ml
Candida albicans [31] = experiment: Filamentation inhibitory effect in Candida albicans SC5314 assessed as inhibition of hyphal formation using hyphal-inducing RPMI 1640 medium at 2 to 8 microg/ml measured after 3 hrs by inverted imaging microscopy; assay type: functional, organism-based; details: dose 2-8 µg/ml
Candida albicans [32] = experiment: Upregulation of BCR1 gene expression in Candida albicans SC5314 assessed as fold increase at 4 microg/ml by real time RT-PCR analysis relative to control; assay type: functional; details: dose 4.0 µg/ml
Pichia kudriavzevii [33] = experiment: Antifungal activity against Candida krusei 4996 assessed as growth inhibition measured after 48 hrs incubation by CLSI based micro-dilution broth method; assay type: functional
Candida albicans [34] = experiment: Antifungal activity against FCZ-resistant Candida albicans strain 904 assessed as growth inhibition measured after 48 hrs incubation by CLSI based micro-dilution broth method; assay type: functional
[Candida] auris = Antifungal activity against FCZ-resistant Candida auris 918 assessed as growth inhibition measured after 48 hrs incubation by CLSI based micro-dilution broth method; assay type: functional; details: Candidozyma auris

O=[N+]([O-])c1ccc(O)c(/C=N/Nc2nc(NCc3ccc(F)cc3)nc(NCc3ccc(F)cc3)n2)c1
MRT last at 24 h [1]: 0.75 h | clearance [2]: 22.9 mL/min/kg | MIC80 (Nakaseomyces glabratus): 0.5 µg/mL (≈ 0.987 µM) | Activity (Candida albicans [3]): inactive | fold change (FC) (Candida albicans [4]): 1.22 | Activity (Candida albicans [5]): 40% | Activity (Candida albicans [6]): Active | IC50 at 24 h [7]: 41.4 µg/mL (≈ 81.7 µM) | fold change (FC) (Candida albicans [8]): 1.52 | MIC80 (Candida albicans [9]): 4 µg/mL (≈ 7.9 µM) | MIC80 (Candida tropicalis): 2 µg/mL (≈ 3.95 µM) | Activity (Candida albicans [10]): 70% | microsomal CLint [11]: 24.9 µL/min/mg | Activity (Candida albicans [12]): Active | Activity (Pichia kudriavzevii [13]): Active | Activity (Cryptococcus neoformans): Active | fractional inhibitory concentration index (FICI) (Candida albicans [14]): 0.25 | AUC(0-inf) [15]: 1470 ng·h/mL | half-life [16]: 1.28 h | Activity (Candida albicans [17]): inactive | fold change (FC) (Candida albicans [18]): 2.56 | MIC80 (Candida albicans [19]): 2 µg/mL (≈ 3.95 µM) | Activity (Candida albicans [20]): 70% | hemolysis at 1 h, 64 microg/ml [21]: 4.92% | Activity (Candida albicans [22]): Dose-Dependent Effect | viability at 24 h, 16 microg/ml [23]: 75.5% | MIC80 (Candida albicans [24]): 0.5 µg/mL | MIC80 (Candida albicans [25]): 16 µg/mL (≈ 31.6 µM) | Vd [26]: 1.08 L/kg | fold change (FC) (Candida albicans [27]): 1.58 | Activity (Candida albicans [28]): Active | Activity (Candida albicans [29]): Active | fold change (FC) (Candida albicans [30]): 4.38 | Activity (Candida albicans [31]): Active | fold change (FC) (Candida albicans [32]): 1.9 | MIC80 (Pichia kudriavzevii [33]): 1 µg/mL (≈ 1.97 µM) | MIC80 (Candida albicans [34]): 1 µg/mL (≈ 1.97 µM) | MIC80 ([Candida] auris): 2 µg/mL (≈ 3.95 µM)
